Here are results for two compounds from publication PMC10676574, “In-silico and in-vitro screening of Asiatic acid and Asiaticoside A against Cathepsin S enzyme” (BMC Pharmacology & Toxicology, 2023).

The target of the assay is T1, Cathepsin S (Homo sapiens, UniProt P25774).
T1 construct: gene CTSS
Put plainly: fluorometric cathepsin S inhibitor assay kit (ab185437), Z-VVR-AFC substrate, kinetic mode. The class given is biochemical.

Like-named read-outs stand apart in the source and are kept apart here.

T1 sequence (P25774 115-331): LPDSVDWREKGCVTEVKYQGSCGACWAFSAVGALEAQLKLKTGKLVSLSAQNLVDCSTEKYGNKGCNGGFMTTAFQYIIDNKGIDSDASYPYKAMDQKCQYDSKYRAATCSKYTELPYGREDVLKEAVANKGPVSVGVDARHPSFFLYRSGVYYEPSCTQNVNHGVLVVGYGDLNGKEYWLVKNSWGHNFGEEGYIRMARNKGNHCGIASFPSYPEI

For the compound asiaticoside A, the IC50 – broadly, the concentration needed to halve the response being measured – (read-out: IC50) is 0.667 µM.
The compound `C[C@H]1[C@H](C)CC[C@]2(C(=O)O)CC[C@]3(C)C(=CC[C@@H]4[C@@]5(C)C[C@@H](O)[C@H](O)[C@@](C)(CO)[C@@H]5CC[C@]43C)[C@H]12` [asiatic acid] came in with a half-inhibitory concentration (IC50) of 14.6 µM.
